Here are results for 114 compounds from the RepoRT retention time repository.

This series in a line: Agilent ZORBAX 300 SB-C18, 150 × 1 mm, 3.5 µm; A: water + 0.01% heptafluorobutyric acid; B: acetonitrile + 0.01% heptafluorobutyric acid; gradient (min/%B) 0/0 100/90. The settings on record: stereoisomer not certain.
For the compound `CCOC(=O)c1c(-c2ccccc2)c[nH]c1C`, the LC retention time is 13.4 min.

For the compound `CCN1CCCCC1`, the LC retention time is 6.52 min.

`Nc1ccccc1CO`: the LC retention time came to 6.62 min.

As for `CCCCCCCCCCCCCCCCN`, the LC retention time worked out at 16.7 min.

On to `Cc1ccc(-n2cccc2)c(O)c1`, for which the LC retention time was 13.1 min.

Turning to `CCN(CC)CCNC(=O)c1ccc(N)cc1`, the LC retention time was 7.73 min.

`CCN(CC)C(=O)c1ccc(O)c(OC)c1`: the LC retention time was 9.39 min.

For `OCc1cccc(CO)n1`, the LC retention time came to 5.64 min.

As to `C#CCNC`, the LC retention time is 3.51 min.

For `COCCNC(=O)Cn1c(=O)n(C)c2ccccc21`, the LC retention time was 8.47 min.

Turning to `CCC(=O)c1ccc2c(c1)N(CC(C)N(C)C)c1ccccc1S2` (centres undefined), the LC retention time stood at 11.8 min.

For `Cc1ccc(NC(=O)Cn2c(=O)c3c(C)cc(C)nc3n(-c3ccccc3)c2=O)c(C)c1`, the LC retention time worked out at 15.2 min.

Regarding `C#CC(C)(C)NC(=O)CCCCCN1C(=O)c2ccccc2C1=O`, the LC retention time amounted to 12.2 min.

For the compound `CCCCCCCCCCCCNC`, the LC retention time was found to be 13.5 min.

As for `c1ccc(Sc2ccc3ccccc3n2)cc1`, the LC retention time amounted to 16.3 min.

With `Cc1ccoc1CC[N+](C)(C)C`, the LC retention time was 7.96 min.

As to `CC(=O)NCC(NC(C)=O)C(C)(C)C` (centres undefined), the LC retention time turned out to be 7.28 min.

As to `Cc1ccc(-n2ccnc2)cc1`, the LC retention time amounted to 8.52 min.

With `Cc1cccc(-c2nnc(-c3ccccc3C)o2)c1`, the LC retention time came out at 17.1 min.

With `O=S(=O)(O)CCN1CCN(CCO)CC1`, the LC retention time is 1.95 min.

For the compound `CN(C)Cc1c[nH]c2ccccc12`, the LC retention time stood at 7.66 min.

Regarding `CC(=O)Nc1ccc(O)cc1`, the LC retention time turned out to be 6.65 min.

As for `Cc1nncn1-c1ccccc1`, the LC retention time worked out at 8.5 min.

For the compound `CSc1nnc(C)c(C)n1`, the LC retention time came out at 8.89 min.

For the compound `O=c1cc[nH]cc1`, the LC retention time was 4.89 min.

On to `CC(=O)C=C(N)c1ccccc1`, for which the LC retention time stood at 10.4 min.

As for `CC(C)c1ccc(C=C2Nc3ccccc3C2=O)cc1`, the LC retention time amounted to 16.9 min.

For `O=C(Nc1ccc2c(c1)oc1ccccc12)c1ccc(C2CCCCC2)cc1`, the LC retention time came out at 20.1 min.

Turning to `Cc1ccc(C=NNC(=O)c2ccc(N)cc2)cc1`, the LC retention time turned out to be 10.3 min.

Take `CCCCCCCCCCOc1ccc(C(=O)NCCN2Cc3ccccc3C2=O)cc1`: the LC retention time worked out at 20.2 min.

For the compound `Cn1cnc2c1c(=O)[nH]c(=O)n2C`, the LC retention time is 6.5 min.

Take `Cc1ccc2cc(-c3cccs3)[nH]c2c1`: the LC retention time is 16.4 min.

Turning to `O=C(O)CCNc1n[nH]c(=O)[nH]c1=O`, the LC retention time amounted to 5.51 min.

On to `CNC(C)C(=O)c1ccccc1` (centres undefined), for which the LC retention time came to 8.4 min.

`Cc1ccccc1N(C)C`: the LC retention time came out at 7.62 min.

`O=C(O)Cn1cnc2ccccc2c1=O`: the LC retention time turned out to be 7.3 min.

With `CCCNC(=O)c1ccccc1N`, the LC retention time worked out at 9.35 min.

For `CNc1ccncc1`, the LC retention time was 6.54 min.

With `O=C(Nc1ccccn1)c1cccc(N2C(=O)CCC2=O)c1`, the LC retention time was found to be 8.59 min.

As to `COC(=O)CC1CC(C)(C)NC(C)(C)C1`, the LC retention time stood at 8 min.

On to `CC1=CC(=O)C(C)(C)NC1`, for which the LC retention time is 6.78 min.

In the case of `c1ccc(-c2cccc(-c3ccccn3)n2)nc1`, the LC retention time turned out to be 9.29 min.

Regarding `CCN1C(=O)CC(N2CCC(n3c(=O)[nH]c4ccccc43)CC2)C1=O` (centres undefined), the LC retention time is 8.81 min.

As to `Cc1ccnc2c1ccc1cccnc12`, the LC retention time is 8.43 min.

On to `O=C(CCCCCN1C(=O)c2ccccc2C1=O)NCc1ccccn1`, for which the LC retention time worked out at 9.55 min.

`Nc1cccc2cc3ccccc3nc12`: the LC retention time is 8.34 min.

As to `CN(C)c1nc(N(C)C)nc(N2CCCCC2)n1`, the LC retention time was 11.2 min.

With `CCCCC1CCC(C(=O)NCC2(N(C)C)CCCCC2)CC1` (centres undefined), the LC retention time came to 12.4 min.

For the compound `CCN(CC)c1nc(N)nc(N2N=CC=NN2)n1`, the LC retention time turned out to be 8.12 min.

Turning to `CCCCCCCCCCCCCCCCCCNC`, the LC retention time was found to be 19 min.

On to `Oc1ccc(-c2cccc(-c3ccc(O)cc3)n2)cc1`, for which the LC retention time worked out at 10.1 min.

As for `Cc1ccc2nc[nH]c2c1`, the LC retention time stood at 7.74 min.

In the case of `c1ccc(C2=Nc3ccccc3Oc3ccccc32)cc1`, the LC retention time was determined as 18.1 min.

Turning to `NNC(=O)CCCO`, the LC retention time stood at 2.37 min.

Turning to `O=C1CC2(CCCC2)CC(=O)N1CCCCN1CCN(c2ncccn2)CC1`, the LC retention time came to 10.2 min.

With `CCCOC(=O)CCNc1n[nH]c(=O)[nH]c1=O`, the LC retention time amounted to 8.44 min.

As to `CNc1ccccc1`, the LC retention time turned out to be 7.27 min.

As to `CCCC(=O)C1CCNCC1`, the LC retention time was 7.57 min.

In the case of `Nc1ccc2c(c1)SSc1cc(N)ccc1-2`, the LC retention time stood at 10.3 min.

Consider `CCc1ccncc1`, for which the LC retention time was found to be 6.94 min.

As to `O=C1CCNc2ccc(-c3ccccc3)cc21`, the LC retention time amounted to 13.1 min.

On to `c1ccc(-c2cnc(-c3cccc4ccccc34)o2)cc1`, for which the LC retention time is 19.4 min.

As for `Cn1c(=O)n(C)c(=O)n(CC(=O)N2CCCCC2)c1=O`, the LC retention time was found to be 8.88 min.

In the case of `CCCCCCCCN(CCCCCCCC)CCCCCCCC`, the LC retention time was determined as 19.5 min.

As for `NC(=S)NN=C1CCCC1`, the LC retention time came out at 8 min.

Turning to `O=C1CCCN1c1ccccc1`, the LC retention time worked out at 10 min.

With `O=c1[nH]c(N=NCc2ccccc2O)nnc1Cc1ccccc1`, the LC retention time is 11.4 min.

On to `CC(C)(C)c1ccc(C(=O)NN=Cc2c[nH]c3ccccc23)cc1`, for which the LC retention time amounted to 14.2 min.

In the case of `CC(C)(C)c1ccc(NC(=O)NCc2ccco2)cc1`, the LC retention time was 14.5 min.

Turning to `Cn1c(=O)c(=O)n(CC(=O)c2ccc3c(c2)CCCC3)c2ccccc21`, the LC retention time was found to be 14.1 min.

For `CC(=O)Nc1ccc(C(=O)NCCc2c[nH]c3ccc(C)cc23)cc1`, the LC retention time is 11.1 min.

With `Cn1c(=O)n(C)c2cc(N3CCCCC3)c(N)cc21`, the LC retention time is 8.49 min.

With `Cc1cc(C=NNC(N)=S)c(C)n1-c1ccccc1`, the LC retention time was determined as 12.7 min.

Consider `Cc1ccc(N2CC(C(=O)O)CC2=O)cc1C` (centres undefined), for which the LC retention time worked out at 10.2 min.

As for `CC(C)c1ccc(-c2cc(-c3ccccc3)c3c(ccc4ncccc43)n2)cc1`, the LC retention time was 20.4 min.

Regarding `CN(C)C(=O)c1ccccc1`, the LC retention time was 8.98 min.

Take `COc1cc(CCN)cc(OC)c1OC`: the LC retention time is 8.22 min.

As for `O=C(O)CCNc1cc(C(=O)O)ccc1C(=O)O`, the LC retention time stood at 7.69 min.

On to `CC(=O)NC(Cc1c[nH]c2ccccc12)C(N)=O` (centres undefined), for which the LC retention time was 7.8 min.

In the case of `CNCCCCCCN(C)CCCCCCNC`, the LC retention time is 7.6 min.

As to `CCCCCCN(C)CCCCCC`, the LC retention time was 11.9 min.

As to `CC(=NN=C(C)c1cccc(N)c1)c1cccc(N)c1`, the LC retention time turned out to be 8.74 min.

In the case of `CCNCC(=O)Nc1c(C)cccc1C`, the LC retention time came to 8.77 min.

Consider `O=c1[nH][nH]c(=O)n1-c1ccc2c(c1)OCO2`, for which the LC retention time is 6.9 min.

Turning to `CNC(C)C(O)c1ccccc1` (centres undefined), the LC retention time is 8.37 min.

For `CCCN1CCCC(C(N)=O)C1` (centres undefined), the LC retention time came to 6.49 min.

For the compound `NC(CCC(=O)OCc1ccccc1)C(=O)O` (centres undefined), the LC retention time worked out at 8.38 min.

Take `Cc1nc2ccccc2c(=O)o1`: the LC retention time amounted to 9.03 min.

As for `CCCCCCN(C)C`, the LC retention time was determined as 8.53 min.

Regarding `CC(=O)Nc1ccc(NC(=O)CCC(=O)O)cc1`, the LC retention time came out at 6.9 min.

On to `CN1C(=O)C2CN(CCc3ccccc3)CNC2N(C)C1=O` (centres undefined), for which the LC retention time is 8.29 min.

Consider `Cc1ccc(CN)cc1`, for which the LC retention time was determined as 7.92 min.

Consider `CC1(C)CC(=NNC(=O)C(=O)NN=C2CC(C)(C)NC(C)(C)C2)CC(C)(C)N1`, for which the LC retention time was determined as 7.32 min.

Consider `NC1c2ccccc2CC1O` (centres undefined), for which the LC retention time was 7.28 min.

On to `Cc1[nH]c(C)c(C(=O)c2ccccc2)c1C`, for which the LC retention time stood at 12.5 min.

As to `CC1(C)CC(=O)C2=C(C1)NCN(Cc1ccccc1)C2`, the LC retention time worked out at 8.44 min.

Take `NC(=O)c1cc2c(ccc3ccccc32)oc1=O`: the LC retention time was found to be 11.1 min.

Turning to `Cc1ccc(C(=O)Cn2c(=N)n(C)c3ccccc32)cc1`, the LC retention time came to 10.6 min.

Turning to `O=c1[nH][nH]c(=O)c2nccnc12`, the LC retention time is 3.97 min.

Consider `CCc1cnccn1`, for which the LC retention time was 8.09 min.

For `CC(=O)Nc1coc2ccccc12`, the LC retention time came out at 10.4 min.

As to `CC(CCc1ccc(O)cc1)NCC(O)c1ccc(O)cc1` (centres undefined), the LC retention time stood at 8.93 min.

With `CN(C)C(=O)C1OC(C)(C)OC1C(=O)N(C)C` (centres undefined), the LC retention time is 8.25 min.

On to `CC(=O)CNC(C)(C)C(C)=O`, for which the LC retention time stood at 5.92 min.

For the compound `COc1ccc(NC(=O)c2ccc(N3C(=O)CCC3=O)cc2)cc1`, the LC retention time stood at 10.3 min.

`O=C(O)Cc1c(C(=O)O)[nH]c2ccc(C(=O)O)cc12`: the LC retention time stood at 7.21 min.

For `CC1(C)CC(NCc2ccncc2)CC(C)(C)N1`, the LC retention time was found to be 7.45 min.

With `C#CCN(CCCC)CCCC`, the LC retention time was 9.04 min.

For the compound `CCN(CC)c1ccc(C=Nc2ccccc2)c(O)c1`, the LC retention time stood at 11.5 min.

As to `Cn1c2c(c(=O)n(C)c1=O)C(CC(=O)O)C(=O)N2` (centres undefined), the LC retention time stood at 6.06 min.

As to `C1=Nc2ccccc2C(c2ccccc2)C1c1ccc2ccccc2n1` (centres undefined), the LC retention time was 11.8 min.

On to `COc1ccc(N2C(=O)CC(C3CCCO3)C2=O)cc1` (centres undefined), for which the LC retention time amounted to 10.7 min.

With `CNC(=O)c1ccc(N)cc1`, the LC retention time was 6.25 min.

On to `OCc1ccccc1CN1CCCC1`, for which the LC retention time was determined as 7.7 min.
